Data set [1] in a line: Solubility of erythromycin alone and as nano-dispersion with modified starch. The data set is classed as physicochemical.
The next data set has as its system Micrococcus luteus. The data set can be described thus: In vitro microbiological activity, agar petri-dish filter-disc test (zones of bacteriostatic activity versus time). Type of data set: cell-based. Conditions: identical concentrations of drug; observed until 216 hours post-application. On the procedure: The microbiological activity of various concentrations of water-soluble complexes of clarithromycin prepared in Example 3 was tested on the bacterium Micrococcus luteus, which is sensitive to macrolide antibiotics, and compared to uncomplexed commercial clarithromycin using well-known agar-filled petri-dish tests. Small filter paper cut discs were impregnated with two different solution concentrations (100 or 1,000 μ/ml) of the tested antibiotics. Diameters of the zones pf bacteriostatic activity were measured versus time. […] It was also observed that the difference in microbiological activity for complexed clarithromycin having concentration differences of an order of magnitude between them is vastly greater than the corresponding differences noted with uncomplexed clarithromycin.

For data set [2] the following is noted: rats, same oral dose of 150 mg/kg; cited from earlier work.

In the case of `CC[C@H]1OC(=O)[C@H](C)[C@@H](O[C@H]2C[C@@](C)(OC)[C@@H](O)[C@H](C)O2)[C@H](C)[C@@H](O[C@@H]2O[C@H](C)C[C@H](N(C)C)[C@H]2O)[C@](C)(O)C[C@@H](C)C(=O)[C@H](C)[C@@H](O)[C@]1(C)O` [Erythromycin, erythromycin], the “solubility of the original drug in water” value in data set [1] is recorded as 0.2%.
Take `CC[C@H]1OC(=O)[C@H](C)[C@@H](O[C@H]2C[C@@](C)(OC)[C@@H](O)[C@H](C)O2)[C@H](C)[C@@H](O[C@@H]2O[C@H](C)C[C@H](N(C)C)[C@H]2O)[C@](C)(OC)C[C@@H](C)C(=O)[C@H](C)[C@@H](O)[C@]1(C)O` [commercial clarithromycin, clarithromycin]: the “time until which antibacterial activity continued” value with Micrococcus luteus is “approximately 48 hours”. Besides, the “AUC0-24 hours, published data” value in data set [2] is 32.54 µg·h/mL.

The values are drawn from patent publication US20050191359A1, “Water soluble nanoparticles and method for their production” (SoluBest Ltd., priority 2001, published 2005).
